Assay results from patent US11912693B2, “Compounds for modulating S1P1 activity and methods of using the same” (TREVENA, INC., priority 2017, dated 2024).

Tests used:
[1] = molecular target: T1, human sphingosine-1-phosphate receptor 1 (S1P1) (Homo sapiens (Human), UniProt P21453); experiment: Inhibition of cAMP production (HTRF cAMP HiRange), S1P1 CHO-K1 cells; assay type: cell-based; conditions: for Emax: CHO-K1, efficacy (SPAN) normalized to fingolimod, read-out: hS1P1 cAMP SPAN; for hS1P1 cAMP pEC50: inhibition of cAMP production, S1P1 CHO-K1 cells
Procedure, shortened: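 CHO-K1 cells stably co-expressing human S1P1 (C-terminal Prolink tag) and EA-β-arrestin2 were grown in AssayComplete Media 6 at 37° C. and 5% CO2, plated, and incubated overnight. Agonist-driven inhibition of intracellular cAMP was read by TR-FRET with the HTRF cAMP HiRange kit on a PheraStar reader. Potency is pEC50, and efficacy (SPAN) is normalized to fingolimod.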
Target sequence in this assay (P21453 whole entry, looked up): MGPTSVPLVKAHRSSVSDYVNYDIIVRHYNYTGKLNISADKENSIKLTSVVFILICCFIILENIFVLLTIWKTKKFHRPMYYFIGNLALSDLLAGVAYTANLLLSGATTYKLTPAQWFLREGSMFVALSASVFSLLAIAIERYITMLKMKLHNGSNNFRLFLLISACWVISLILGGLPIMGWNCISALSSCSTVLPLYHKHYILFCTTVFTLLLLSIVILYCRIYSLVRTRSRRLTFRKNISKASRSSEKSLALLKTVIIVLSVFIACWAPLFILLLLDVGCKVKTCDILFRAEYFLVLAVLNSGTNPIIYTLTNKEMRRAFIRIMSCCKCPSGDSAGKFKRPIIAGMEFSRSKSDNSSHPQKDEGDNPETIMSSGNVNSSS

[2] = molecular target: T1, human sphingosine-1-phosphate receptor 1 (S1P1); experiment: β-Arrestin2 recruitment assay (PathHunter), S1P1 CHO-K1 cells; assay type: cell-based; conditions: for Emax: CHO-K1, efficacy (SPAN) normalized to fingolimod, read-out: hS1P1 B-arrestin2 SPAN; for hS1P1 B-arrestin2 pEC50: β-arrestin2 recruitment, S1P1 CHO-K1 cells
Procedure, shortened: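 Enzyme-fragment complementation read-out: agonist-driven β-arrestin2 binding to ProLink-tagged human S1P1 in stable CHO-K1 cells restores β-galactosidase, measured 1 h at room temperature after a 60 min 37° C. compound incubation. Potency as pEC50, efficacy relative to fingolimod (SPAN).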
Target sequence in this assay (P21453 whole entry, looked up): as above
Target sequence in this assay (P32121 whole entry partner, looked up): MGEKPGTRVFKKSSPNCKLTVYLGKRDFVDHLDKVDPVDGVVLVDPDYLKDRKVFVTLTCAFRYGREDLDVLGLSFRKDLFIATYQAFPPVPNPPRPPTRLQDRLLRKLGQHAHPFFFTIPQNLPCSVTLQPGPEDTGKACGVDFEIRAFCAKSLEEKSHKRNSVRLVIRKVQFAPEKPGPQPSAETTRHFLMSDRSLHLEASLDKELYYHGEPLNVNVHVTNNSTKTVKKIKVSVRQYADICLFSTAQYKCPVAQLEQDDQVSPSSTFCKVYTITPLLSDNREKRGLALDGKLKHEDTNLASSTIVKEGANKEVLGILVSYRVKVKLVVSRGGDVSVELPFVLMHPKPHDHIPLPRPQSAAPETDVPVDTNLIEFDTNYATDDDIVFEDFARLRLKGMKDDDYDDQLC

| SMILES | Emax [1] | hS1P1 cAMP pEC50 [1] | Emax [2] | hS1P1 B-arrestin2 pEC50 [2] |
| --- | --- | --- | --- | --- |
| COc1ccccc1-c1cnc(-c2ccc3c(c2)nnn3C(C)C)s1 [Compound 184, 2-(1-isopropyl-1H-benzo[d][1,2,3]triazol-5-yl)-5-(2-methoxyphenyl)thiazole] | – | <6.5 | – | <5 |
| OCCn1nnc2cc(-c3noc(-c4ccccc4Br)n3)ccc21 [Compound 238, 2-(5-(5-(2-bromophenyl)-1,2,4-oxadiazol-3-yl)-1H-benzo[d][1,2,3]triazol-1-yl)ethanol] | < 75% | <6.5 | < 75% | <5 |
| FC(F)Oc1ccc(-c2noc(-c3ccc4c(c3)nnn4C3CCCC3)n2)cc1 [Compound 80, 1-cyclopentyl-5-{3-[4-(difluoromethoxy)phenyl]-1,2,4-oxadiazol-5-yl}-1H-1,2,3-benzotriazole] | < 75% | >6.5 | < 75% | <5 |
| Cc1ccccc1-c1noc(-c2ccc3c(c2)nnn3C2CC2)n1 [Compound 171, 1-cyclopropyl-5-[3-(2-methylphenyl)-1,2,4-oxadiazol-5-yl]-1H-1,2,3-benzotriazole] | – | >6.5 | – | >5 |
| CC(C)n1nnc2cc(-c3nc(-c4ccccc4)no3)ccc21 [Compound 79, 5-(3-phenyl-1,2,4-oxadiazol-5-yl)-1-(propan-2-yl)-1H-1,2,3-benzotriazole] | > 75% | >6.5 | > 75% | >5 |
| CC(C)n1nnc2cc(-c3nc(-c4ccccc4Cl)co3)ccc21 [Compound 163] | > 75% | – | > 75% | – |
| COc1cccnc1-c1noc(-c2ccc3c(c2)nnn3C2CCCC2)n1 [Compound 203, 1-cyclopentyl-5-[3-(3-methoxypyridin-2-yl)-1,2,4-oxadiazol-5-yl]-1H-1,2,3-benzotriazole] | < 75% | <6.5 | > 75% | <5 |
| Cc1ccccc1-c1nc(-c2ccc3c(c2)nnn3C2CCCC2)no1 [Compound 162, 3-(1-cyclopentyl-1H-benzo[d][1,2,3]triazol-5-yl)-5-(o-tolyl)-1,2,4-oxadiazole] | – | <6.5 | – | >5 |
| CC(C)C(c1ccccc1)c1noc(-c2ccc3c(c2)nnn3C(C)C)n1 (stereo not drawn) [Compound 56, 5-[3-(2-methyl-1-phenylpropyl)-1,2,4-oxadiazol-5-yl]-1-(propan-2-yl)-1H-1,2,3-benzotriazole] | – | <6.5 | – | <5 |
| Cc1ccncc1-c1nc(-c2ccc3c(c2)nnn3C(C)C)no1 [Compound 100, 3-(1-isopropyl-1H-benzo[d][1,2,3]triazol-5-yl)-5-(4-methylpyridin-3-yl)-1,2,4-oxadiazole] | < 75% | <6.5 | < 75% | <5 |
| CCC1(CC)CC(=O)c2cc(-c3nc(-c4ccc(Cl)cc4)no3)ccc2O1 [Compound 68, 6-[3-(4-chlorophenyl)-1,2,4-oxadiazol-5-yl]-2,2-diethyl-chroman-4-one] | < 75% | <6.5 | < 75% | <5 |
| COc1ccc(-c2nc(-c3ccc4c(c3)nnn4C3CCCC3)no2)cc1 [Compound 196, 3-(1-cyclopentyl-1H-benzo[d][1,2,3]triazol-5-yl)-5-(4-methoxyphenyl)-1,2,4-oxadiazole] | – | <6.5 | – | <5 |
| Cc1ccncc1-c1noc(-c2ccc3c(c2)nnn3C2CC2)n1 [Compound 94, 1-cyclopropyl-5-[3-(4-methylpyridin-3-yl)-1,2,4-oxadiazol-5-yl]-1H-1,2,3-benzotriazole] | > 75% | <6.5 | > 75% | <5 |

Other lines, results leading:

| Emax [1] | hS1P1 cAMP pEC50 [1] | Emax [2] | hS1P1 B-arrestin2 pEC50 [2] | SMILES |
| --- | --- | --- | --- | --- |
| > 75% | <6.5 | < 75% | <5 | CC(C)(CO)n1nnc2cc(-c3noc(-c4cccnc4F)n3)ccc21 [Compound 643, 2-(5-(5-(2-fluoropyridin-3-yl)-1,2,4-oxadiazol-3-yl)-1H-benzo[d][1,2,3]triazol-1-yl)-2-methylpropan-1-ol] |
| > 75% | >6.5 | > 75% | <5 | CCC1(CC)CC(=O)c2cc(-c3nc(-c4ccncc4C(F)(F)F)no3)ccc2O1 [Compound 313, 2,2-diethyl-6-(3-(3-(trifluoromethyl)pyridin-4-yl)-1,2,4-oxadiazol-5-yl)chroman-4-one] |
| – | <6.5 | – | <5 | CCC1(CC)CC(=O)c2cc(-c3nc(-c4ccn[nH]4)no3)ccc2O1 [Compound 470, 6-(3-(1H-pyrazol-5-yl)-1,2,4-oxadiazol-5-yl)-2,2-diethylchroman-4-one] |
| < 75% | <6.5 | < 75% | <5 | COc1ccc(-c2coc(-c3ccc4c(c3)nnn4C(C)C)n2)cc1 [Compound 250, 5-[4-(4-methoxyphenyl)-1,3-oxazol-2-yl]-1-(propan-2-yl)-1H-1,2,3-benzotriazole] |
| – | <6.5 | – | >5 | CC1CC(=O)c2ccc(-c3nc(-c4ccncc4)no3)cc2O1 (stereo not drawn) [Compound 536, 2-methyl-7-[3-(pyridin-4-yl)-1,2,4-oxadiazol-5-yl]-3,4-dihydro-2H-1-benzopyran-4-one] |
| > 75% | <6.5 | < 75% | <5 | CC(C)n1nnc2cc(-c3nc(-c4nccn4C)no3)ccc21 [Compound 569, 5-[3-(1-methyl-1H-imidazol-2-yl)-1,2,4-oxadiazol-5-yl]-1-(propan-2-yl)-1H-1,2,3-benzotriazole] |
| – | >6.5 | – | >5 | CCC1(CC)CC(=O)c2cc(-c3ncc(-c4ccccc4OC)cn3)ccc2O1 [Compound 594, 2,2-diethyl-6-(5-(2-methoxyphenyl)pyrimidin-2-yl)chroman-4-one] |
| > 75% | <6.5 | > 75% | <5 | CC(C)n1nnc2cc(-c3noc(-c4ccccc4C#N)n3)ccc21 [Compound 279, 2-(3-(1-isopropyl-1H-benzo[d][1,2,3]triazol-5-yl)-1,2,4-oxadiazol-5-yl)benzonitrile] |
| < 75% | <6.5 | < 75% | <5 | N#Cc1cc(-c2nc(-c3ccc4c(c3)CCC(=O)N4)no2)ccc1N [Compound 345, 2-amino-5-[3-(2-oxo-1,2,3,4-tetrahydroquinolin-6-yl)-1,2,4-oxadiazol-5-yl]benzonitrile] |
| > 75% | >6.5 | > 75% | <5 | Cc1ccc2nc(-c3ccc4c(c3)nnn4C(C)C)oc2c1 [Compound 420, 2-(1-isopropyl-1H-benzo[d][1,2,3]triazol-5-yl)-6-methylbenzo[d]oxazole] |
| > 75% | >6.5 | > 75% | >5 | N#Cc1cc(-c2nnc(-c3ccc4[nH]ncc4c3)o2)ccc1NCC1CC1 [Compound 352, 2-[(cyclopropylmethyl)amino]-5-[5-(1H-indazol-5-yl)-1,3,4-oxadiazol-2-yl]benzonitrile] |
| – | <6.5 | – | <5 | N#Cc1cc(-c2nnc(-c3ccc4c(c3)ncn4CCO)o2)ccc1NCC(F)F [Compound 578, 2-[(2,2-difluoroethyl)amino]-5-{5-[1-(2-hydroxyethyl)-1H-1,3-benzodiazol-5-yl]-1,3,4-oxadiazol-2-yl}benzonitrile] |
| < 75% | >6.5 | > 75% | >5 | CC(C)n1nnc2cc(-c3nc(-c4ccc5nc[nH]c5c4)no3)ccc21 [Compound 511, 5-[3-(1H-1,3-benzodiazol-6-yl)-1,2,4-oxadiazol-5-yl]-1-(propan-2-yl)-1H-1,2,3-benzotriazole] |
| – | <6.5 | – | >5 | CC(C)n1ccc2cc(-c3nc(-c4cccc5c4OCCC5)no3)ccc21 [Compound 327, 3-chroman-8-yl-5-(1-isopropylindol-5-yl)-1,2,4-oxadiazole] |
| – | <6.5 | – | <5 | CC(C)n1nnc2cc(-c3noc(-c4ccc(-c5ccccc5)cc4)n3)ccc21 [Compound 248, 5-([1,1′-biphenyl]-4-yl)-3-(1-isopropyl-1H-benzo[d][1,2,3]triazol-5-yl)-1,2,4-oxadiazole] |
| < 75% | <6.5 | < 75% | <5 | COc1cccc(OC)c1-c1noc(-c2ccc3c(cnn3C(C)C)c2)n1 [Compound 335, 3-(2,6-dimethoxyphenyl)-5-(1-isopropylindazol-5-yl)-1,2,4-oxadiazole] |
| > 75% | >6.5 | > 75% | >5 | CCC1(CC)CC(=O)c2cc(-c3nc(-c4cncc(NS(C)(=O)=O)c4)no3)ccc2O1 [Compound 545, N-(5-(5-(2,2-diethyl-4-oxochroman-6-yl)-1,2,4-oxadiazol-3-yl)pyridin-3-yl)methanesulfonamide] |
